For one experiment, the system named is SMAD7. In words: SMAD7 transcript levels (RNA-seq, RT-qPCR) in HepG2 cells. It counts as cell-based, human. The protocol: RNA was extracted using TRIzol™ reagent following the manufacturer's instructions (Thermo Fisher Scientific, 15596026). cDNA synthesis was performed using qScript cDNA Supermix according to the manufacturer's instructions, using 1000 ng RNA as input (qScript cDNA SuperMix, QuantaBio—95048-500). qPCR was performed on a Thermo Fisher Scientific QuantStudio 6 machine using Fast SYBR™ Green Master Mix (Thermo Fisher Scientific 4385618). Expression data is presented after calculating the relative expression compared with the housekeeping gene RPLP0, using the equation Relative Quantification (RQ)=100/(2^(Target Gene Ct−RPLP0Ct). When data is reported relative to a sample condition, the condition of reference was set as 1 and the data of the other conditions were reported as a ratio (condition/condition of reference).
RNA sequencing was performed by the Whitehead Institute Genome Technology Core. Libraries were prepared using the KAPA HyperPrep stranded RNA kit following manufacturer's instructions. Samples were sequenced on a HiSeq2500 in High-Output mode generating 50 bases, single-end reads.
RNA-sequencing (RNA-seq) bioinformatics analysis was performed on the Whitehead High-Performance Computing Facility using the nf-core RNA-seq pipeline v1.4.2 (81) with Nextflow v20.04.1. Quality control of .fastq files was performed with FastQC v0.11.8. The reads were single-end and the strandedness was set to reverse. Low quality sequences were trimmed using Trim Galore!v0.6.4. Alignment was performed against the hg19 genome assembly using STAR v2.6.1d (85) and duplicates were marked using Picard MarkDuplicates v2.21.1. Quantification of transcripts using featureCounts v1.6.4 (86). Differential expression analysis was performed using edgeR v3.26.5 (87). deepTools v3.3.1 (88), dupRadar v1.14.0 (89), Qualimap v.2.2.2-dev (90), and MultiQC v1.7 were used for quality control. ERCC92 was used as RNA spike-in.
For orientation: Real-time PCR tracks product formation cycle by cycle.

Experiment [1] relates to transcriptional condensates at SMAD7. In words: IR-GFP and SMAD7 intronic RNA FISH colocalization in HepG2 cells. It is filed as cell-based, human.
A further experiment relates to IR condensates. In words: Immunofluorescence for IR in human liver spheroids (primary human hepatocytes). It counts as cell-based. Particulars: 3 nM insulin 10 min. The procedure: For human liver spheroid experiments, primary human hepatocytes from a donor (BioIVT; lot #SMC) were used. Cells were thawed in Cryopreserved Hepatocyte Recovery Media (CHRM, ThermoFisher), spun down at 100 g for 8 min, and resuspended in seeding medium (William's E with 5.5 mM glucose, 2 mM GlutaMax, 15 mM HEPES, 5% FBS, 1% Pen/Strep, 100 nM hydrocortisone, and insulin 200 pM or 800 pM corresponding to the proper experimental group). Spheroids were formed using custom alginate microwells. In brief, 120,000 cells were seeded per well and spun at 50 g for 2 min to seed microwells, and cultured in a volume of 300 uL seeding medium. After 24 hours, cells were switched to maintenance media for the remainder of the experiment. This maintenance media was composed of William's E plus 6.25 μg/ml transferrin, 6.25 ng/ml selenium, 0.125% fatty acid-free BSA, 20 μM linoleic acid, 5.5 mM glucose, 2 mM GlutaMax, 15 mM HEPES, 0.5% Pen/Strep, and 100 nM hydrocortisone. Insulin was supplemented with concentrations adjusted to mimic healthy and disease-inducing states, either 200 pM for physiological or 800 pM for pathologic insulin levels. Media was exchanged every 48 hours throughout the experiment. […]

The mark [2] stands for this setting: insulin resistant cells, acute insulin stimulation.

“Also recorded” adds a separate entry of the source.

`CN(C)C(=N)N=C(N)N` [metformin, reference compound]: the SMAD7 gene expression entry in the experiment with SMAD7 (metformin-treated insulin resistant cells) was “elevated”. In experiment [1] (metformin-treated insulin resistant cells, 3 nM insulin 5 min (FIG. 5D)), the “IR levels in SMAD7 transcriptional condensates” value is “increased”. Further, the “IR signal in cytoplasmic and nuclear condensates/puncta” value in the experiment on IR condensates (insulin resistant human liver spheroids + metformin) was “partially rescued”.

In the case of “insulin: insulin (Sigma Aldrich, I9278-5ML) used for acute stimulation and chronic physiological or pathological exposure”, the SMAD7 gene expression result in the experiment with SMAD7 (setting [2]) is recorded as “nor did it cause upregulation of SMAD7 gene expression; also recorded: nor did it upregulate SMAD7 gene expression”. In addition, in the experiment with SMAD7 (insulin sensitive cells, before and after insulin stimulation (RNA-seq)), the SMAD7 expression entry is “upregulated”. In addition, the “levels of IR in transcriptional condensates at SMAD7” value in experiment [1] (setting [2]) was “did not increase the levels of IR in transcriptional condensates; also recorded: did not cause increased levels of IR in transcriptional condensates”. Also, the “colocalization of IR-containing condensates with SMAD7 nascent RNA” value in experiment [1] (insulin sensitive cells, 0 nM versus 3 nM insulin) was “increased colocalization”. Also, the “IR signal intensity in cytoplasmic and nuclear condensates/puncta” value in the experiment on IR condensates (insulin sensitive human liver spheroids) was “leads to an increase in IR signal intensity in cytoplasmic and nuclear condensates; also recorded: produced an increase in IR signal intensity in cytoplasmic and nuclear puncta”.

(Values after US20250186379A1, “METHODS AND AGENTS FOR DECREASING INSULIN RESISTANCE” (Whitehead Institute for Biomedical Research, priority 2021, published 2025).)
